Data taken from patent US20190022096A1, “METHODS OF TREATING CANCER” (Corvus Pharmaceuticals, Inc., priority 2017, published 2019).
“And” between values parts separate entries of the source, which are not always exact repeats. Equal entries are not always repeated. “Also recorded” adds a separate entry of the source.

Columns and labels:
CT26 colon tumors = experiment: Syngeneic CT26 mouse colon cancer model; conditions: CPI-444 100 mg/kg oral Day 0, 12 days, anti-PD-1 100 ug i.p. days 7, 9, 11, 13
Description: Treatment continued for 12 days.
Treatment continued for 7 days. […] Treatment continued for 7 days.
Treatment continued for 7 days.

EL4 lymphoma = experiment: Syngeneic EL4 mouse lymphoma model; type: in vivo; conditions: CPI-444 10, 30, 100 mg/kg daily oral
Experimental: Syngeneic C57BL/6 female mice (8-10 weeks old) were injected (via subcutaneous route) with EL4 cells.

A2AR [1] = target: T1, A2AR (Homo sapiens, UniProt P29274); experiment: cAMP production in NECA-stimulated primary human T cells (LANCE Ultra cAMP); type: cell-based; design: endogenous in cells; host or cells: primary human T cells / human PBMCs
T1 sequence (P29274 whole entry): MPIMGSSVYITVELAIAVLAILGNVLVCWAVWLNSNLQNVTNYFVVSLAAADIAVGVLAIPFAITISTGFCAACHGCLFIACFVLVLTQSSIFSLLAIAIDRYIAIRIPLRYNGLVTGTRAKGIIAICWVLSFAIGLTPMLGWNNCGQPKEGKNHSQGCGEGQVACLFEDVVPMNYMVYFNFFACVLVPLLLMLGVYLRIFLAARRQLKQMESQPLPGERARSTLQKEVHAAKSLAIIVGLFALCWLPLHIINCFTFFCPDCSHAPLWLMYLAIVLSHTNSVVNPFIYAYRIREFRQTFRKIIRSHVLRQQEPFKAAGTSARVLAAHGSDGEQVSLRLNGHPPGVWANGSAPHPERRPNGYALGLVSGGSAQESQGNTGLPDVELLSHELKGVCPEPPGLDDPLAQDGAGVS
Experimental: Adenosine signaling through A2AR leads to increases in the levels of cAMP.
T cells were isolated from human PBMC by negative selection and activated via CD3/CD28 stimulation for 48 hours to induce A2AR expression. Stimulated T cells were then “rested” for 24 hours by removal of CD3/CD28 stimulation in order to minimize background levels of cAMP.

A2AR [2] = target: T1, A2AR; experiment: pCREB in fresh PBMCs (B cell population) stimulated with NECA; conditions: primarily B cells
Description: Adenosine signaling via A2AR leads to an increase in intracellular cAMP and subsequent phosphorylation of CREB.

solid tumor patients = experiment: Phase 1/1b clinical trial in solid tumor patients; type: in vivo, human
Experimental: After a dose selection stage, pts are treated in 10 disease specific cohorts (5 single agent and 5 combination). Cohorts may be expanded based on response criteria: complete response, partial response or stable disease (SD). Biomarkers are evaluated including immune cells by flow cytometry in peripheral blood and pre/post treatment tumor biopsies as well as adenosine pathway modulation by immunohistochemistry and gene expression.
In step 1 of the trial, patients were dosed with either 100 mg BID for 14 days out of a 28 day cycle, 100 mg BID for 28 days, 200 mg QD for 14 days or 50 mg or 100 mg BID for 14 days in combination with […]® (840 mg Q2W). Pharmacodynamic analysis was conducted on peripheral blood cells to inform dose selection. Step 1 of Phase1/1b was fully enrolled (n=48) and dose was selected (100 mg BID) based on pharmacodynamic analysis of A2AR pathway.

[3] = tested on: NECA-induced pCREB in CD4+ T cells; experiment: NECA-induced pCREB in CD4+ T cells of whole blood of treated patients (flow cytometry)
Experimental: (§1) On day 14, blood was collected prior to dosing (0 hr, trough) and for a time course post-dose (1.5, 3, 5.5, 8 hr) (FIGS. 26-28). The level of signaling was determined and the percent inhibition on Day 14 compared to Day 1 pre-treatment was calculated.

[4] = tested on: NECA-induced pCREB in B cells; experiment: NECA-induced pCREB in B cells of whole blood of treated patients (flow cytometry)
Experimental: as §1

A2AR [5] = target: T1, A2AR; experiment: pERK in human CD4+ T cells after TCR cross-linking; conditions: in the presence of NECA (1 μM)
A2AR [6] = target: T1, A2AR; experiment: IL-2 and IFNγ secretion from activated primary human PBMCs (AlphaLISA); type: cell-based; design: endogenous in cells; host or cells: primary human T cells / human PBMCs; conditions: CPI-444 1 μM; NECA or CGS21680 1 μM; anti-CD3/anti-CD28 48 hours
Experimental: Purified anti-CD3 and anti-CD28 monoclonal antibodies (1 ug/ml) were then added to activate T cells for 48 hours.
Purified anti-CD3 and anti-CD28 monoclonal antibodies (1 ug/ml) were then added to activate T cells for 48 hours. In this study, AlphaLISA assays (PerkinElmer) analyzed on an EnVision MultiLabel Reader were used to measure cytokine release according to the manufacturer's instructions.

[7] = cited from earlier work
[8] = Plasma levels of CPI-444 in patients; type: in vivo, human; conditions: Day 14
MC38 colon tumors = experiment: Syngeneic MC38 mouse colon carcinoma model
Renca = conditions: CPI-444 10 mg/kg from Day 16, 14 days; 50 mg/kg Cyclophosphamide on first day

Cc1ccc(-c2nc(N)nc3c2nnn3Cc2cccc(COC3CCOC3)n2)o1 (centres unmarked) [CPI-444]
tumor growth, single agents (CT26 colon tumors): inhibition of tumor growth; also recorded: inhibits the growth; also recorded: non-significant reductions in tumor growth | response of established primary tumors (EL4 lymphoma): minimal therapeutic response | tumor growth in regional lymph nodes (number and size of enlarged nodes) (EL4 lymphoma): significant dose-dependent inhibition; also recorded: significant, dose-dependent decrease | cAMP production upon NECA stimulation, dependence on CPI-444 dose (A2AR [1]; FIG. 6): dose-dependent manner | production of cAMP upon NECA treatment (A2AR [1]; all levels of NECA tested (10^-5 to 10^-9 M), 10 minutes): completely blocked | NECA-induced CREB phosphorylation (A2AR [2]): completely inhibited | Grade 3 or 4 treatment related adverse events (solid tumor patients; 7 pts treated to date): no Grade 3 or 4 treatment related adverse events | TCR clonality following treatment (solid tumor patients; Nivolumab-refractory lung cancer patient, FIG. 21C): increased clonality | tumor response (solid tumor patients; Nivolumab-refractory lung cancer patient, single agent 100 mg po BID x 28 days/cycle): Tumor regression | PD-1+/CD8+ (activated CD8) and memory cell frequencies in blood (solid tumor patients; single agent and combination cohorts): Increases | TCR repertoire in peripheral blood (solid tumor patients; single agent, some patients): robust changes; also recorded: induced | tolerability (solid tumor patients; solid tumor patients): well tolerated | increases in PD-1+CD8+ cells in peripheral blood compared to baseline (solid tumor patients; the two pts with SD): 1.7 fold and 2.4 fold | CPI-444 plasma level above which pCREB inhibition is near complete [3]: greater than 2,000 ng/mL | inhibition of pCREB ([4]; 50 mg BID cohort): not high enough for sustained inhibition; also recorded: Variable inhibition | inhibition of pCREB ([4]; 100 mg BID cohort): highest pCREB inhibition at trough and near complete inhibition after taking their morning dose; also recorded: high pCREB inhibition at trough and near complete inhibition after taking their morning dose | patients with complete and sustained inhibition of NECA-induced pCREB ([4]; 100 mg BID single agent, Day 14): 7 of 7 | inhibition of pCREB ([4]; 200 mg QD cohort): achieves high peak levels but is not maintained at trough; also recorded: Variable inhibition | pCREB induction by NECA ([4]; following 14 days of treatment): attenuated | inhibition of NECA induced increase of pCREB ([4]; one subject, 200QD for 14 days, 1 μM NECA): partial inhibition | ERK signaling / pERK levels in CD4+ T cells (A2AR [5]): restored pERK levels in a dose-dependent manner | IFNγ secretion in presence of A2AR agonist (A2AR [6]): restored | IL-2 secretion in presence of A2AR agonist (A2AR [6]): restored | adverse events ([7]; 75 subjects previously dosed): no significant adverse events | tolerability ([7]; non-oncology indications): well tolerated | time of peak plasma drug levels [8]: 3 h | mice in which rechallenge tumors were fully rejected (MC38 colon tumors; 9 mice rechallenged, over 15 days after first 5 days): 9 mice | tumor growth (MC38 colon tumors; CPI-444 1 mg/kg daily oral gavage 28 days, from one day after engraftment): did not inhibit tumor growth | tumor growth (MC38 colon tumors; CPI-444 10 mg/kg daily oral, 10 mg/kg): significantly inhibits; also recorded: significant inhibition of tumor growth | tumor growth (MC38 colon tumors; CPI-444 100 mg/kg daily oral, 100 mg/kg): significantly inhibits; also recorded: significant inhibition of tumor growth | eliminates tumors (MC38 colon tumors; CPI-444 100 mg/kg from Day 9, 14 days, anti-CTLA-4 9H10 100 ug days 9, 12, 15, 18): 20 % of mice | tumor growth, single agents (MC38 colon tumors; CPI-444 100 mg/kg from Day 9, anti-CTLA-4 100 ug): moderate tumor growth inhibition | tumor growth, single agents (MC38 colon tumors; CPI-444 100 mg/kg oral Day 0, 12 days, anti-PD-L1 200 ug i.p. days 7, 10, 13, 16): inhibition of tumor growth | eliminated tumors (MC38 colon tumors; CPI-444 dose response study): 30 % of mice | tumor growth on re-challenge of cured mice (MC38 colon tumors; MC38 re-challenge): fully inhibited | signs of reoccurrence (MC38 colon tumors; additional 6 weeks after end of study): No tumor growth was observed | complete tumor regression (MC38 colon tumors; all cohorts (1, 10, 100 mg/kg)): observed in a subset of mice | inhibition of tumor growth, dose response (MC38 colon tumors; daily CPI-444 1, 10, 100 mg/kg): dose-dependent inhibition | tumor elimination (MC38 colon tumors; daily CPI-444 1, 10, 100 mg/kg): 9/30 | protected from rechallenge (MC38 colon tumors; mice with complete tumor growth inhibition, new MC38 engraftment, no additional treatment): 100% | levels of immune checkpoints GITR, OX40, LAG3 on tumor infiltrating lymphocytes and circulating T cells (MC38 colon tumors; mouse, in vivo): modulated | CD73 expression in tumors (IHC, frequency x intensity) (MC38 colon tumors; relative to control): significantly higher

O=P1(N(CCCl)CCCl)NCCCO1 (centres unmarked) [Cyclophosphamide]
tumor growth / response rate (Renca): slight tumor growth inhibition

COc1cccc2c1C(=O)c1c(O)c3c(c(O)c1C2=O)C[C@@](O)(C(=O)CO)C[C@@H]3O[C@H]1C[C@H](N)[C@H](O)[C@H](C)O1 [Doxorubicin, reference compound]
tumor growth (MC38 colon tumors; CPI-444 100 mg/kg from Day 11, 14 days, 4 mg/kg Doxorubicin on first day): slight tumor growth inhibition
